Calls of active or inactive are those of the source.
Columns and labels:
H9c2 = experiment: cells; format: functional, cell-based; conditions: Rattus norvegicus, H9c2, Myocardium;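 note: confirmatory concentration-response retest of ultra-high-throughput screening hits for modulation of myocardial damage; cell death induced by hydrogen peroxide oxidative stress; compound pretreatment for 60 min then peroxide exposure for 2 h; potency is for protecting the cells against peroxide damage rather than for killing them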
Large T antigen = Large T antigen (Simian virus 40, UniProt P03070); format: functional, Betapolyomavirus macacae;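 note: Confirmatory-stage PubChem screen for compounds that inhibit SV40 T antigen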
Large T antigen, sequence (P03070 whole entry): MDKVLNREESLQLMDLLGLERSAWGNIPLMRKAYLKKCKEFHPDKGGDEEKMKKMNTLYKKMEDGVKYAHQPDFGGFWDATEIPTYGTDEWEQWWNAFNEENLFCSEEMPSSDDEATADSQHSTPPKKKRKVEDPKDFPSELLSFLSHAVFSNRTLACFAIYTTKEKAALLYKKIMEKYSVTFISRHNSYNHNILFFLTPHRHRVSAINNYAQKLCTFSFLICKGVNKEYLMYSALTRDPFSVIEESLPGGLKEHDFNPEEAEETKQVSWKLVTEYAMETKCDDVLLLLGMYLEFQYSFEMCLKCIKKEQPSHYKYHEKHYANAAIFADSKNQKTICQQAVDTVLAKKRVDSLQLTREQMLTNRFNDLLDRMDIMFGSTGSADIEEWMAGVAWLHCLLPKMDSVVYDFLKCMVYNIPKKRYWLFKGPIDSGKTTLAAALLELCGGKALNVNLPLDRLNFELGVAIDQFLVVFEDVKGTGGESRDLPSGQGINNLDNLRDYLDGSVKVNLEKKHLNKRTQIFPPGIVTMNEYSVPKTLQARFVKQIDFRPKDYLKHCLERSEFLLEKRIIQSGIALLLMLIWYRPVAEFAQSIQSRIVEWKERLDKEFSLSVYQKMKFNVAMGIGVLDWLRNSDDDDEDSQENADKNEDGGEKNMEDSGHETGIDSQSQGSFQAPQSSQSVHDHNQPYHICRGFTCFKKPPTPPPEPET

INS1 = experiment: beta cell apoptosis inhibitors, cytokine rescue, dose response, luminescence, retest (AID 449756); format: functional, cell-based; conditions: Rattus norvegicus;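 note: cell death triggered by IL-1 beta plus TNF-alpha plus IFN-gamma mixture; protective hits raise ATP signal compared with cytokine alone wells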
[1] = target: T1, Heat shock factor protein 1 (Mus musculus, UniProt P38532); experiment: inhibition of MG132-induced HSE-luciferase signal, confirmation, cell-based, NIH3T3, luminescence, dose retest (AID 2382); format: functional;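 note: NIH3T3 fibroblasts with HSF1-driven luciferase reporter stressed by proteasome inhibitor MG132; luminescence from HSF1-driven luciferase expression after 8 hours of MG132 stress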
T1 sequence (P38532 whole entry): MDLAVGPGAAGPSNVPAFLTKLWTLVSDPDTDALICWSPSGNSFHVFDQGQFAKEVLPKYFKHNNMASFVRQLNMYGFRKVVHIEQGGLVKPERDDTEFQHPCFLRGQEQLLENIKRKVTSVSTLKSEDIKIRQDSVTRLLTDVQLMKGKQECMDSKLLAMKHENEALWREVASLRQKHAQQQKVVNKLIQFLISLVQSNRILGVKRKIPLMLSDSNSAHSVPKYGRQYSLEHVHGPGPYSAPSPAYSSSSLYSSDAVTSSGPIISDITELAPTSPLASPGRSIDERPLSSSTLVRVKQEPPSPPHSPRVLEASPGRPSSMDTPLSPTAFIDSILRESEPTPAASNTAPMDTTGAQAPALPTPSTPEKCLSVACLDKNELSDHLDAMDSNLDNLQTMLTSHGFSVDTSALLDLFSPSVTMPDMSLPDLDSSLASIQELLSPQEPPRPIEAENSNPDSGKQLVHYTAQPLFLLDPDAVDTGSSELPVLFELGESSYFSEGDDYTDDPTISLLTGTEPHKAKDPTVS

[2] = target: T2, Replicative DNA helicase DnaB (Mycobacterium tuberculosis, UniProt P9WMR3); experiment: DnaB intein splicing inhibitors, dose response, biochemical, cell-free fluorescence (AID 449749); format: functional
T2 sequence (P9WMR3 whole entry): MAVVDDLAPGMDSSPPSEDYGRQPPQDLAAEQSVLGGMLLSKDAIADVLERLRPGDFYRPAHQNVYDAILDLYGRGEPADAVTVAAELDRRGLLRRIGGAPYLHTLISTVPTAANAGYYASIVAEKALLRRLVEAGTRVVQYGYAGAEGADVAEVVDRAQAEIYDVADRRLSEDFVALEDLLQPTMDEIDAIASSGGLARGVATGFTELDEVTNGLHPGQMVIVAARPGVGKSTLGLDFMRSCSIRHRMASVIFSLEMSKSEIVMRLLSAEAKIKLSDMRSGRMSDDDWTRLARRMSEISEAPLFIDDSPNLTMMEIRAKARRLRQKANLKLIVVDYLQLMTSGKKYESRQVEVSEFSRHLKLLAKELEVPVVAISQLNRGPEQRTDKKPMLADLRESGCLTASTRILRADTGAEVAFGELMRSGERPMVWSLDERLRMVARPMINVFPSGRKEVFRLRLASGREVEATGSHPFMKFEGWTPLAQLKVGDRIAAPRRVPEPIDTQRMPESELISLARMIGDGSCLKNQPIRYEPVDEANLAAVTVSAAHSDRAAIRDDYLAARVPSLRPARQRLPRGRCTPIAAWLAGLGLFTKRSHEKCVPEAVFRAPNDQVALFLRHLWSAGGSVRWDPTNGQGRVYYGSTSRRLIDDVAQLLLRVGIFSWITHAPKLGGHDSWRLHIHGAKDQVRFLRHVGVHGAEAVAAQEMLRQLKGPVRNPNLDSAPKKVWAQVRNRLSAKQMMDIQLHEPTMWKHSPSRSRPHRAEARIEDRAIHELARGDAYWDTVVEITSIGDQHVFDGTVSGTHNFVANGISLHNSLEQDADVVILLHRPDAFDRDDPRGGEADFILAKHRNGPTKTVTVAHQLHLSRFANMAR

Protein RecA = target: T3, Protein RecA (Mycobacterium tuberculosis, UniProt P9WHJ3); experiment: Fluorescence Cell-Free Homogeneous Dose Retest to Identify Inhibitors of RecA-Intein Splicing Activity. [Related pubchem assays (depositor defined):AID2097, AID2223, AID489010, AID492950]; format: functional
T3 sequence (P9WHJ3 whole entry): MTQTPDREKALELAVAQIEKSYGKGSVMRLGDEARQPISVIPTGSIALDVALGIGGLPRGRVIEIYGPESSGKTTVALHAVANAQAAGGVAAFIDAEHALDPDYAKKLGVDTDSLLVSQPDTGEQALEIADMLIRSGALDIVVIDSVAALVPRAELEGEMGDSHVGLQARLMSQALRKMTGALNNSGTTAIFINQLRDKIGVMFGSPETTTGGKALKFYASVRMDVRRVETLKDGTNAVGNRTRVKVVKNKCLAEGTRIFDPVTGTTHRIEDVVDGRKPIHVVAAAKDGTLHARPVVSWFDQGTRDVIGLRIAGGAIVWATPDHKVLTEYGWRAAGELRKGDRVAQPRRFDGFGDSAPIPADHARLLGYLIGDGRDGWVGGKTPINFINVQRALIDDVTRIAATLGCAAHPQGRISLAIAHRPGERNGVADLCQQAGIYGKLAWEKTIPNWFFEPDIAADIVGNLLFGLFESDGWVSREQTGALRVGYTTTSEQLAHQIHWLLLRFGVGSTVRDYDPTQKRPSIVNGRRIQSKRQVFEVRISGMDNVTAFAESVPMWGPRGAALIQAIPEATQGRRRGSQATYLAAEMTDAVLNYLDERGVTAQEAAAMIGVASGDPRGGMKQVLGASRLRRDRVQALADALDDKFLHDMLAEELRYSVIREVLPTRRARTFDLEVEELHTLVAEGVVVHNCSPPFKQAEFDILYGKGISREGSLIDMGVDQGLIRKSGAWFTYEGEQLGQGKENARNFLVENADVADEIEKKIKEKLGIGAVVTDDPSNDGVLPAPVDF

[3] = target: Induced myeloid leukemia cell differentiation protein Mcl-1 (Homo sapiens, UniProt Q07820); format: functional
Induced myeloid leukemia cell differentiation protein Mcl-1, sequence (Q07820 whole entry): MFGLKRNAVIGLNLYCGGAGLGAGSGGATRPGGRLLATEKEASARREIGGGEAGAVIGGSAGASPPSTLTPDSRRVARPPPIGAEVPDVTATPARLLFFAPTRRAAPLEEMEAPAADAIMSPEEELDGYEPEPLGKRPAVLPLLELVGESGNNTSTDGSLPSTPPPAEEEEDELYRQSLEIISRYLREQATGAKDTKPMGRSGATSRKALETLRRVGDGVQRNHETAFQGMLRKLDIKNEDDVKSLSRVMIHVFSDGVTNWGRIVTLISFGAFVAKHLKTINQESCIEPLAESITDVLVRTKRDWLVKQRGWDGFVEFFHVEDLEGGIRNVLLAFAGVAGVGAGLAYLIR

HEK293 = experiment: inhibitors of LMP1-driven NF-kB reporter, dose response, cell-based, HEK293, luciferase, cherry-pick (AID 588343); format: functional; conditions: Homo sapiens
[4] = target: FAD-linked sulfhydryl oxidase ALR (Homo sapiens, UniProt P55789); experiment: inhibitors of human ALR sulfhydryl oxidase, dose response, biochemical, H2O2 detection, luminescence, cherry-pick (AID 493248)
FAD-linked sulfhydryl oxidase ALR, sequence (P55789 whole entry, the tested form may be a part): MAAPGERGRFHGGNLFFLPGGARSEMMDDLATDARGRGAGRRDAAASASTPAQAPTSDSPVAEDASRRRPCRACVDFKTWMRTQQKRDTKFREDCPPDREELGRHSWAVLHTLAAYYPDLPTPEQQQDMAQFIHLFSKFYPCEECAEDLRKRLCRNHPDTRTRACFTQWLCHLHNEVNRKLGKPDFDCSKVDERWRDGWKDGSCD

[5] = target: T4, RNA-binding protein pos-1 (Caenorhabditis elegans, UniProt G5EF15); experiment: inhibitors of POS-1/mex-3 RNA binding, dose response, biochemical, fluorescence polarization (AID 1964);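 note: purified POS-1 fused to maltose binding protein made in E. coli; potency of compounds blocking POS-1 binding to fluorescent RNA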
T4 sequence (G5EF15 whole entry): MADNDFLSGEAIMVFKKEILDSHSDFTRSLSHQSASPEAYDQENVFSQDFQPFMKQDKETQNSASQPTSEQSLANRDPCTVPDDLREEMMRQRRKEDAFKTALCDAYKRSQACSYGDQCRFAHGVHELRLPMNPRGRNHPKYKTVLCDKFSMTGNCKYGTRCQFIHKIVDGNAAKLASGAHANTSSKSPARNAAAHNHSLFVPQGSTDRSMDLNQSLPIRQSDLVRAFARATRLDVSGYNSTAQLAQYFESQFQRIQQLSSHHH

[6] = target: T5, Zinc finger protein mex-5 (Caenorhabditis elegans, UniProt Q9XUB2); experiment: MEX-5/TCR-2 RNA interaction inhibitors, dose response, biochemical, C. elegans, fluorescence polarization (AID 1960)
T5 sequence (Q9XUB2 whole entry): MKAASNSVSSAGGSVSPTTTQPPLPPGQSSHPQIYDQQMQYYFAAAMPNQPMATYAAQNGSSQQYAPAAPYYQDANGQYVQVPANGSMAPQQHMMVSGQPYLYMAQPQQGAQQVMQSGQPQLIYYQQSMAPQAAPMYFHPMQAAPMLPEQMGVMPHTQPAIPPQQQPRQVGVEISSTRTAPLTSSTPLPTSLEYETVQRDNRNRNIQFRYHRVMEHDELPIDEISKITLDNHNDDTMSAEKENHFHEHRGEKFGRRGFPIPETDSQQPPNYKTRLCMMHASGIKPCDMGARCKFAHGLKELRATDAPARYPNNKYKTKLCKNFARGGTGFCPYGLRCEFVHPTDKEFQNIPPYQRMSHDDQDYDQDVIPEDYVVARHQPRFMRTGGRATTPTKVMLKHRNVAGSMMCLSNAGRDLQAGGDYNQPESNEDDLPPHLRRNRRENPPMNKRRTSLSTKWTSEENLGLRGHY

Cytochrome P450 2D6 = Cytochrome P450 2D6 (Homo sapiens, UniProt P10635);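 note: CYP2D6 member of a cytochrome P450 panel assay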
Cytochrome P450 2D6, sequence (P10635 whole entry): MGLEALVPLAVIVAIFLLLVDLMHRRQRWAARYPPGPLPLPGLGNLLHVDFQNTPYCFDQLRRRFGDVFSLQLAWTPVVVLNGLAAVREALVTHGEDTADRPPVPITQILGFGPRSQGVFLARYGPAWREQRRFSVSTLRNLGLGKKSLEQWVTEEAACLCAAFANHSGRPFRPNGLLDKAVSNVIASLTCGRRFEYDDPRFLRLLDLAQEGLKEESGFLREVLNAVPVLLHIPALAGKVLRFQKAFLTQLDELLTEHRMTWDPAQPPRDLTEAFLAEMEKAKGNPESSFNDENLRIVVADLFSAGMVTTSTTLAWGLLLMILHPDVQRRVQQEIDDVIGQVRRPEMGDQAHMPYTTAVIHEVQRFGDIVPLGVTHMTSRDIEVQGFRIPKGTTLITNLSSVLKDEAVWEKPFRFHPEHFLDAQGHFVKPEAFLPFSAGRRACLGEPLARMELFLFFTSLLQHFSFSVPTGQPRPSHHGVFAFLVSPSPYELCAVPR

Compound: Cc1ccccc1NC(=O)COc1cccc2c1CCNC2=O
- IC50 (H9c2): 13.9 µM (active)

Compound: COc1cc(-c2cc(C(=O)OCC(=O)NC3CC3)c3ccccc3n2)cc(OC)c1OC
- IC50 (H9c2): > 79 µM (inactive)

Compound: C=CCNC(S)=NNC(=O)c1cc(O)ccc1O
- IC50 (Large T antigen): > 100 µM (active)

Compound: CN(C)c1ccc(NC(=O)c2ccc3[nH]cnc3c2)cc1
- IC50 (Large T antigen): 6.99 µM (active)

Compound: O=C(Oc1ccc(N(Cc2cccs2)C2=NS(=O)(=O)c3ccccc32)cc1)c1ccccc1Cl
- IC50 (H9c2): 23.2 µM (active)

Compound: O=C(Nc1ccc(Cl)c(Cl)c1)N1CCSC1c1ccco1 (stereo not drawn)
- AC50 (INS1): 11.8 µM (active)

Compound: CCOc1ccc(N=Nc2c(N)n[nH]c2O)cc1
- EC50 [1]: > 195 µM (not active)
- AC50 [2]: 15.3 µM (active)
- EC50 (Protein RecA): 3.85 µM (active)

Compound: Cc1ccccc1NP(=O)(Oc1ccccc1F)Oc1ccccc1F
- IC50 (H9c2): > 79 µM (inactive)

Compound: O=C(Cn1[nH]c(=O)c2ccccc2c1=O)NC1CCN(Cc2ccccc2)CC1
- IC50 (H9c2): > 79 µM (inactive)

Compound: COc1ccc(-c2ccc3c(n2)sc2c(=O)[nH]c(=O)[nH]c23)cc1OC
- IC50 [3]: 1.76 µM (active)

Compound: CCN(CC)c1ccc(C2C(C(=O)OC(C)C)C(=O)CC(C)(O)C2C(=O)OC(C)C)cc1 (stereo not drawn)
- IC50 (H9c2): > 79 µM (inactive)

Compound: Cc1ccc(C(=O)Nc2cccc(C(=O)N/N=C/c3ccccc3F)c2)cc1
- AC50 (HEK293): 7.43 µM (active)

Compound: CCCc1n[nH]c(O)c1C(c1ccc(Br)cc1)C(C#N)C#N (stereo not drawn)
- AC50 [4]: 2.24 µM (active)
- AC50 [2]: 5.5 µM (active)
- EC50 (Protein RecA): 4.06 µM (active)

Compound: CCN(CC)C(=O)c1cc2c(=O)c3cc(Cl)ccc3oc2nc1C
- EC50 [5]: > 300 µM (not active)
- EC50 [6]: > 300 µM (not active)

Compound: O=C1NC(=O)N(Cc2ccccc2)C(=O)/C1=C/Nc1ccc(CN2CCOCC2)cc1
- EC50 [5]: > 300 µM (not active)
- EC50 [6]: > 300 µM (not active)

Compound: CCn1c(SCC(=O)Nc2ccc(OC)cc2)nc2nc3c(cc2c1=O)CCCC3
- AC50 (INS1): 38.7 µM (active)

Compound: CN(C)c1ccc(C(CNC(=O)c2ccc(F)cc2)c2c[nH]c3ccccc23)cc1 (stereo not drawn)
- IC50 [3]: 3.08 µM (not active)

Compound: CNc1nc2cc([N+](=O)[O-])c([N+](=O)[O-])cc2nc1NC
- AC50 (INS1): 0.32 µM (active)

Compound: O=C(Nc1ccc(O)cc1)/C(=C\c1cccs1)NC(=O)c1ccccc1
- IC50 (Large T antigen): 23 µM (active)

Compound: Cc1ccc(Sc2c(C)[nH]n(C(C)(C)C)c2=O)cc1
- AC50 [2]: 30 µM (active)
- EC50 (Protein RecA): 1.47 µM (active)

Compound: NNC(=O)c1cc(-c2ccccc2)sc1N
- IC50 (Large T antigen): 17.2 µM (active)
- AC50 [4]: 8.45 µM (active)

Compound: COC(=O)C1CCN(C(=O)c2cc(-c3ccc(Cl)s3)nc3ccccc23)CC1
- AC50 (INS1): 3.98 µM (active)

Compound: CC(C)c1n[nH]c2c1C(c1cccnc1)C(C#N)=C(N)O2 (stereo not drawn)
- AC50 [2]: 1.78 µM (active)
- EC50 (Protein RecA): 1.81 µM (inconclusive)

Compound: CSc1nc(=S)n(-c2ccc([N+](=O)[O-])cc2)c(C)c1C(C)=O
- AC50 [2]: 40.3 µM (active)
- EC50 (Protein RecA): 12.1 µM (active)

Compound: CCCOc1cccc(C2C(C(=O)c3ccco3)=C(O)C(=O)N2c2nnc(C)s2)c1 (stereo not drawn)
- EC50 [5]: 51.9 µM (active)
- EC50 [6]: 82.7 µM (active)

Compound: Cc1c(NC(=O)CSc2ccc(Cl)cc2)cccc1-c1nc2cc(Cl)ccc2o1
- EC50 [5]: > 300 µM (not active)
- EC50 [6]: > 300 µM (not active)

Compound: COc1ccc(C(=O)Nc2nnc(SCC(=O)NC3CC3)s2)cc1
- AC50 (HEK293): 4.42 µM (active)

Compound: Cc1cc(O)c(C(C)C)cc1N=C1CSC(=O)N1
- EC50 [5]: 38.9 µM (active)
- EC50 [6]: 34.6 µM (active)

Compound: COCCn1/c(=N/C(=O)c2nc3ccccc3s2)sc2cc(S(C)(=O)=O)ccc21
- IC50 (H9c2): > 79 µM (inactive)

Compound: O=C(O)CCc1nc(-c2cccs2)no1
- IC50 [3]: 17.6 µM (not active)

Compound: COc1ccc(/C=N/NC(=O)c2cc[nH]n2)cc1COc1ccc(Cl)cc1
- IC50 (H9c2): > 79 µM (inactive)
- AC50 (Cytochrome P450 2D6): 25.1 µM (inconclusive)

Compound: COc1ccccc1NC(=O)c1cc(-c2ccc(OC)c(OC)c2)nc2ccccc12
- IC50 (H9c2): > 79 µM (inactive)

Compound: O=C(O)CCC(=O)Nc1ccc(SSc2ccc(NC(=O)CCC(=O)O)cc2)cc1
- IC50 (Large T antigen): 5.39 µM (active)

Compound: N#Cc1c(-c2ccco2)cc(-c2cccnc2)nc1N
- IC50 (H9c2): > 79 µM (inactive)
